PubChem BioAssay (NCI)
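1) Cells in 96-well plates. 2) Compound, 48 h, 5 concentrations. 3) Linear interpolation between surrounding doses. 4) Unreached endpoint = highest concentration. The concentration for full growth arrest is given as TGI.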

How the values were obtained:
Assay in all cases: NCI-60 cell line screen, 48 h
HOP-92 NSCLC = test system: HOP-92 NSCLC
UACC-62 melanoma = test system: UACC-62 melanoma
HCT-116 colon = test system: HCT-116 colon
HOP-62 NSCLC = test system: HOP-62 NSCLC
A549 NSCLC = test system: A549 NSCLC
SK-MEL-5 melanoma = test system: SK-MEL-5 melanoma
SNB-78 CNS = test system: SNB-78 CNS
OVCAR-4 ovarian = test system: OVCAR-4 ovarian
SNB-19 CNS = test system: SNB-19 CNS
OVCAR-5 ovarian = test system: OVCAR-5 ovarian
NCI-H226 lung = test system: NCI-H226 lung
DMS 273 small cell lung = test system: DMS 273 small cell lung
LOX IMVI melanoma = test system: LOX IMVI melanoma
XF 498 CNS = test system: XF 498 CNS
SF-539 CNS = test system: SF-539 CNS
COLO 205 colon = test system: COLO 205 colon
K-562 leukemia = test system: K-562 leukemia
SF-295 CNS = test system: SF-295 CNS
NCI-H522 lung = test system: NCI-H522 lung
KM20L2 colon = test system: KM20L2 colon
M19-MEL melanoma = test system: M19-MEL melanoma
MALME-3M melanoma = test system: MALME-3M melanoma
CCRF-CEM leukemia = test system: CCRF-CEM leukemia
DLD-1 colon = test system: DLD-1 colon
M14 melanoma = test system: M14 melanoma
HL-60(TB) leukemia = test system: HL-60(TB) leukemia
DMS 114 small cell lung = test system: DMS 114 small cell lung
A498 renal = test system: A498 renal
RPMI-8226 leukemia = test system: RPMI-8226 leukemia
CAKI-1 renal = test system: CAKI-1 renal
UACC-257 melanoma = test system: UACC-257 melanoma
NCI-H23 lung = test system: NCI-H23 lung
LXFL 529 NSCLC = test system: LXFL 529 NSCLC
MOLT-4 leukemia = test system: MOLT-4 leukemia
U251 CNS = test system: U251 CNS
IGROV1 ovarian = test system: IGROV1 ovarian
EKVX NSCLC = test system: EKVX NSCLC
UO-31 renal = test system: UO-31 renal
NCI-H460 lung = test system: NCI-H460 lung
SR leukemia = test system: SR leukemia
SF-268 CNS = test system: SF-268 CNS
KM12 colon = test system: KM12 colon
RXF-631 renal = test system: RXF-631 renal
SW-620 colon = test system: SW-620 colon
SK-OV-3 ovarian = test system: SK-OV-3 ovarian
SNB-75 CNS = test system: SNB-75 CNS
TK-10 renal = test system: TK-10 renal
SN12C renal = test system: SN12C renal
OVCAR-8 ovarian = test system: OVCAR-8 ovarian
786-0 renal = test system: 786-0 renal
RXF 393 renal = test system: RXF 393 renal
OVCAR-3 ovarian = test system: OVCAR-3 ovarian
HCT-15 colon = test system: HCT-15 colon
HT29 colon = test system: HT29 colon
SK-MEL-28 melanoma = test system: SK-MEL-28 melanoma
HCC-2998 colon = test system: HCC-2998 colon
SK-MEL-2 melanoma = test system: SK-MEL-2 melanoma
ACHN renal = test system: ACHN renal

Measured: TGI

CC(=O)C1(O)CC2(c3ccccc3)C(=O)C1(c1ccccc1)C(c1ccccc1)=C2c1ccccc1 (stereo not given)
not listed: SK-MEL-28 melanoma | HCC-2998 colon | SK-MEL-2 melanoma | ACHN renal
> 100 µM: all other assays above

CC1(OCc2ccccc2)C(=O)N2C1NCC2(C)C (stereo not given)
not listed: HOP-92 NSCLC | SNB-78 CNS | OVCAR-5 ovarian | NCI-H522 lung | CAKI-1 renal | KM12 colon | SK-OV-3 ovarian
> 100 µM: all other assays above
